Test results from PMC12346480, “The Pharmacokinetic and Pharmacodynamic Relationship of Clinically Used Antiseizure Medications in the Maximal Electroshock Seizure Model in Rodents” (International Journal of Molecular Sciences, 2025).
Like-named read-outs stand apart in the source and are kept apart here.

Assays:
[1] = Plasma protein binding, mouse; details: Xenon in-house data
Excerpt: (§1) PPB data is available in Supplemental Table S1.
(§2) Supplemental Table S1. Summary of effective plasma concentrations, plasma protein binding (PPB), and unbound plasma concentrations (Cp,u) for the ASMs tested in mice, rats and humans.
(§3) *For mouse and rat, plasma EC50 from the MES assay at one time point after a single dose is shown. For human, literature-reported therapeutic plasma concentrations are shown. […]
(§4) mouse, for which published data were used. For human, published data is shown.
(§5) *** Cp,u values for rodents have been calculated based on MES EC50. Cp,u values for humans represent the lower and upper bounds of reported therapeutic plasma concentrations, adjusted for PPB, as reported in clinical pharmacokinetic

[2] = Brain-to-plasma ratio in rats; details: Sprague-Dawley, rat
Procedure: (§6) After being subjected to the stimulation protocol, rodents were anesthetized by isoflurane inhalation until they reached a surgical plane of anesthesia. Approximately 0.5 mL of blood was collected via cardiac puncture and transferred to EDTA-coated tubes on ice. Animals were then euthanized by cervical dislocation, and their brains were removed, weighed, and immediately frozen on dry ice. At the end of sample collection, blood was centrifuged at 4000 rpm for 10 min at 4 °C, and the plasma was separated. All samples were stored at −80 °C until the time of bioanalysis.
(§7) Plasma samples were extracted for analysis using a protein precipitation method with acetonitrile. A total of 50 µL of diluted plasma samples was mixed with 50 µL of an internal standard (IS) solution in a 1:1 mixture of acetonitrile and water. A total of 200 µL of acetonitrile was then added to the mixture, which was vortexed for 30 s. The samples were centrifuged at 13,000 rpm for 20 min, decanted into a 96-well plate, and further centrifuged at 4000 rpm for 20 min. The samples were then analyzed using ultra-high-performance electrospray ionization tandem mass spectrometry (UHPLC-ESI-MS/MS).
(§8) Brains were homogenized in a 1:1 mixture of acetonitrile and water (2 mL per mouse brain) using the T18 ULTRA-TURRAX (IKA, Staufen im Breisgau, Germany) homogenizer for about 1 min. The homogenate was centrifuged at 13,000 rpm for 20 min, and 50 µL of the supernatant was treated in the same way as the plasma samples for analysis.
(§9) At 1.5 min, the mobile phase composition was switched back to 50% B at 1.6 min and then held at 50% B until 2.5 min. The flow rate used throughout the experiment was 0.4 mL/min. […] Each compound was matched with a proprietary co-eluting internal standard. The UHPLC-ESI MS/MS system was controlled, and samples were quantified using Analyst 1.6.

[3] = Brain-to-plasma ratio in mice; details: CF-1, mouse
Procedure: as §6, §7, §8, §9

MES-induced seizures [4] = assay: animal or person; assay type: in vivo
Procedure: (§10) Animals were group-housed (2–4 mice or 3–4 rats per cage) in plastic cages and maintained under controlled temperature (18–25 °C), humidity, ventilation, and lighting (12 h light/dark cycle). They had free access to water and Certified Rodent Chow (Teklad Rodent Chow). Upon arrival, the animals were examined to ensure good health status and were acclimated to the facility for at least 5 days before being subjected to the MES protocol. All experiments were conducted in accordance with guidelines set by the Canadian Council on Animal Care and approved by the Xenon Animal Care Committee.
(§11) Drugs were administered by the intraperitoneal route (IP; dissolved in sterile saline) or oral route (PO; dissolved in 0.5% methylcellulose + 0.2% Tween 80 in DI water) in a volume of 10 mL/kg. Control animals received the appropriate vehicle. The doses and pre-treatment times for each drug, detailed in Table 2, were determined based on in-house data or, in some cases, from the publicly available PANACHE database.
(§12) The MES assay is widely used in the search for anticonvulsant substances. This animal model for generalized tonic–clonic seizures assesses a compound’s ability to prevent seizure spread. […] Before the electroshock stimulation, the eyes were anesthetized with a topical application of 0.5% proparacaine hydrochloride (one drop per eye). Animals were then restrained; the corneal electrodes were applied, and the shock was administered. An MES-induced seizure was characterized by an initial generalized tonic seizure with a hindlimb tonic extensor component.
(§13) The protocols for administering PO or IP doses of the vehicle or drug are described in […]. These doses were administered 0.5–2 h before the application of electric stimulation. An animal was considered protected from MES-induced seizures if the hindlimb tonic extensor component of the seizure was abolished, and it was scored as “0”. […] Seizure induction and scoring were performed by an experimenter who was blinded to treatment conditions.
as §6, §7, §8, §9

MES-induced seizures [5] = assay: Alternating current maximal electroshock seizure assay (AC-MES) in rats with plasma and brain exposure; assay type: in vivo, Sprague-Dawley rats; details: for ED50: single PO dose, pre-treatment 0.5-2 h per Table 2, read-out: ED50 (median effective dose)
Procedure: as §10, §11, §12, §13, §6, §7, §8, §9

MES-induced seizures [6] = assay: animal or person; assay type: in vivo; details: mouse MES; single dose, route and pre-treatment time per Table 2 (PO or IP, 0.25-2 h); read-out: ED50 (median effective dose)
[7] = Plasma protein binding, rat; details: Xenon in-house data
Excerpt: as §1, §2, §3, §4, §5

[8] = human plasma; published data ref 36-47; cited from earlier work
[9] = human, cited from earlier work; for Effective plasma concentration: literature-reported therapeutic plasma concentrations ref 36-47; for Cp,u (unbound therapeutic plasma concentration): lower and upper bounds of therapeutic plasma concentrations adjusted for PPB ref 36-47
[10] = mouse plasma, cited from earlier work
[11] = set-up: method as in earlier work; details: rat plasma; published data ref 34; cited from earlier work
[12] = mouse MES, brain concentration for 50% probability of seizure protection, read-out: EC50 Brain
[13] = mouse MES, plasma concentration for 50% probability of seizure protection, one time point after single dose, read-out: EC50 Plasma
[14] = mouse, calculated based on MES EC50 and PPB, read-out: Cp,u EC50 (unbound plasma concentration)
[15] = rat MES, brain concentration for 50% probability of seizure protection, read-out: EC50 Brain
[16] = rat MES, plasma concentration for 50% probability of seizure protection, one time point after single dose, read-out: EC50 Plasma
[17] = rat, calculated based on MES EC50 and PPB, read-out: Cp,u EC50 (unbound plasma concentration)
[18] = Rattus norvegicus, read-out: Cp,u EC50 (unbound plasma concentration)
[19] = Rattus norvegicus, read-out: EC50 Brain
[20] = Rattus norvegicus, read-out: EC50 Plasma

Row | Structure (SMILES) | PPB (% bound) [1] [% bound] | Kp ([2]; brain and plasma, oral) | Kp ([3]; brain and plasma, oral) | EC50 (MES-induced seizures [4]; [12]) [µM] | EC50 (MES-induced seizures [4]; [13]) [µM] | EC50 (MES-induced seizures [4]; [14]) [µM] | EC50 (MES-induced seizures [5]; [15]) [µM] | EC50 (MES-induced seizures [5]; [16]) [µM] | ED50 (MES-induced seizures [5]; rat MES) [mg/kg] | EC50 (MES-induced seizures [5]; [17]) [µM] | ED50 (MES-induced seizures [6]) [mg/kg] | PPB (% bound) [7] [% bound] | PPB (% bound) [8] [% bound] | Effective plasma concentration [9] [µM] | Cp,u (unbound therapeutic plasma concentration) [9] [µM] | Kp ([2]; in vivo) | Kp ([3]; in vivo) | EC50 (MES-induced seizures [5]; [18]) [µM] | EC50 (MES-induced seizures [5]; [19]) [µM] | EC50 (MES-induced seizures [5]; [20]) [µM] | also measured
1 | NC(=O)N1c2ccccc2C=Cc2ccccc21 [CBZ, carbamazepine] | 52.4 | 1.03 | 2.36 | 32.5 | 13.8 | 7.04 | 4.7 | 4.55 | 4.39 | 1.63 | 9.67 | 63.9 | 75.0 | 17 to 51 | 4.25 to 12.8 | – | – | – | – | – | –
2 | NC(=O)O[C@@H](Cn1ncnn1)c1ccccc1Cl [CNB, cenobamate] | – | – | – | 24.9 | 66 | 40.1 | – | – | – | – | 7.05 | 46.1 | 60.0 | 89.3 to 170 | 35.7 to 68.0 | 0.67 | 0.38 | 8.93 | 10.7 | 15.9 | Doses giving significant reduction of MES-induced seizures (fraction seizing) (MES-induced seizures [5]; rat MES, vs vehicle, Kruskal-Wallis/Dunn): 18 mg/kg; PPB (% bound) ([10]; published data ref 35): 43.2 % bound
3 | COC[C@@H](NC(C)=O)C(=O)NCc1ccccc1 [LSM, lacosamide] | 21.8 | – | – | 14.8 | 19.3 | 15.6 | – | – | – | – | 15.2 | 22.9 | 13.4 | – | – | 0.49 | 0.77 | 22.2 | 12.2 | 24.9 | –
4 | O=C1NC(=O)C(c2ccccc2)(c2ccccc2)N1 [PHT, phenytoin] | 80.3 | 0.83 | 1.11 | 30.6 | 27.6 | 5.37 | 2.66 | 3.2 | 16.9 | 0.89 | 9.81 | 80.6 | 90.0 | 40 to 79 | 4.00 to 7.90 | – | – | – | – | – | –
5 | CCOC(=O)Nc1ccc(NCc2ccc(F)cc2)cc1N [RTG, retigabine] | 86.2 | – | – | – | 2.26 | 0.52 | – | – | – | – | – | 85.1 | 80.0 | 1.98 to 3.99 | – | – | – | 0.2 | – | 1.46 | –
6 | CCCC(CCC)C(=O)O [VPA, valproic acid] | – | 0.24 | 0.38 | – | 1670 | 1640 | – | – | – | – | 196 | – | 90.0 | 346 to 693 | 34.6 to 69.3 | – | – | 647 | 307 | 1310 | PPB (% bound) [11]: 66.5 % bound; EC50 (MES-induced seizures [4]; Mus musculus, read-out: EC50 Brain): 630 µM; PPB (% bound) ([10]; published data ref 34): 12.0 % bound
